Reference: US20220218736A1, “NEW THERAPY” (INDEX PHARMACEUTICALS AB, priority 2018, published 2022)
Oligonucleotides are written 5' to 3', each unit as a sugar letter and its base; * is a phosphorothioate linkage, no mark a phosphodiester; rarer units and linkages stand in square brackets, end groups in braces. Plain capitals give the bases only. d = 2'-deoxy (DNA)

Key:
[1] = system: patient with ulcerative colitis refractory to steroids and immunosuppressive therapies; assay: Compassionate use program, patient p12; colitis activity index (CAI) course; type: in vivo, human
Text: This example relates to unpublished experimental data that was collected as part of a compassionate use program. A diagnosis of ulcerative colitis was established based on clinical, endoscopic and histological features. Written consent was received for the patient and the treatment approved by the relevant local ethics committee.
The patient was a person who was first diagnosed with ulcerative colitis 5 years previously and who had become refractory to steroids and immunosuppressive therapies (GCS, infliximab and natural IFN-β). In the form of an experimental add-on therapy, relapses were treated for 4 years with natural Interferon-beta (Fiblaferon). […] A severe relapse in January 2010 was treated with high doses of steroids in combination with azathioprine and 5-ASA without success. […] The treatment with a high dose of steroid in combination with Infliximab had some effect in reducing the CAI score from 14 to 9 in March 2010. However, the subject was still in a very active state of the disease. […]
The patient received 3 doses of 30 mg cobitolimod diluted in 50 mL of sterile water at 4 week intervals as an add on to current therapies. Application of drug was performed during colonoscopy with the aid of a spraying catheter inserted through the colonoscopies biopsy channel and delivered approximately to the upper portion of the descending colon or to the transverse region.
Depicted is the colitis activity index [CAI] against the time in months. […] 2011 when the treating physician last contacted all the patients to follow-up on the treatments.

[2] = system: chronic DSS-induced colitis; assay: Chronic DSS-induced mouse model of colitis; colon length and weight/length ratio; type: in vivo, C57BL/6 mice; conditions: Day 30; for colon-shortening effects of DSS (colon length): Days 4-28 every 4 days
Text: The objective of this study was to test the efficacy of cobitolimod as a maintenance therapy in the chronic DSS-induced mouse model of colitis.
37 male C57BL/6 mice were enrolled in the chronic DSS-induced colitis study and housed for a stabilization period of 5 days prior to the study. All animals were housed in HEPA-ventilated cages with sani-chips bedding. Domes and sterile cotton scratch pads were provided for enrichment. Fluorescent lighting was provided on a 12-hour cycle. Temperature and humidity were monitored and recorded daily and maintained to 20-23° C. temperature, and 30-70% relative humidity. 2018S 18% protein rodent maintenance diet was provided ad libitum.
Cobitolimod was diluted in saline either to 125 μg/100μ1 (1.25 μg/μl, dose 1) or 500 μg/100 μl (5 μg/μl, dose 2) in the beginning of the experiment. The solution was aliquoted and kept at 4° C. for the duration of the experiment. At each administration day 100 μl was administered to the mice rectally. FTY-720 (S1P1 receptor inhibitor) was dissolved in dH2O and served as positive control. For a dose of 1 mg/kg, using an average body weight of 30 grams, the compound was prepared and 100 μL orally dosed daily to each animal.
9 week old mice received 2% DSS dissolved into autoclaved water ad libitum (Group 2-5, n=8 each per group) for 5 days, and were switched to autoclaved drinking water for the next five days. This cycle was repeated, alternating between DSS treatment and autoclaved water, every five days for a duration of 30 days in total. During each 5-Day DSS treatment phase, fresh 2% DSS was provided on the third day of the five-day cycle. Group 1 (n=5) served as a control (naïve mice) that received only autoclaved water ad libitum throughout the study. On Day 4, mice in Group 3 (n=8) were orally dosed with FTY-720 as positive control (Group 3, n=8) and continued daily dose until end of the study. Also starting on Study Day 4, animals were dosed with Vehicle (Group 2, […]), or with two different doses of cobitolimod (Group 4 and Group 5, n=8 per group) intrarectally. […] Groups 2, 4, and 5 were dosed again on Days 8, 12, 16, 20, 24, and 28.
Body weight, stool consistency, stool blood, body condition score, and physical health were recorded on dosing days, and two days after each dosing day from at Day 0 through termination on Study Day 30. […] Animals that lost greater than 20% of their pre-treatment body weight were monitored and fed diet/hydro gel for 72 hrs. No animals were terminated due to prolonged body weight loss, or signs of pain and distress due to disease.
The study was terminated on Day 30, and necropsy was performed on all animals. Spleens were weighed and then discarded. Colon length and weight was recorded, and the weight/length ratio calculated for each animal. […]

[3] = system: patients with moderate-to-severe active UC; assay: Randomized, double-blind, placebo-controlled clinical trial of cobitolimod; symptomatic remission; type: in vivo, human
Experimental: In this randomized, double-blind, placebo-controlled trial, 131 patients with moderate-to-severe active UC were randomized to receive two single doses of the oligonucleotide cobitolimod [30 mg] or placebo administered topically during lower GI endoscopy at baseline and Week 4. The primary endpoint was clinical remission, defined as Clinical Activity (Rachmilewitz) Index [CAI]≤4, at Week 12. Secondary endpoints included mucosal healing and symptomatic remission of key patient-reported outcomes [absence of blood in stool and weekly stool frequency <35].
Eligible patients were adults with moderate to severely active ulcerative colitis with a Clinical Activity Index [CAI] of ≥9 and an endoscopic Mayo score of ≥2, despite treatment with glucocorticosteroids [GCS] [prednisolone] equivalent ≥10 mg/day] for ≥2 weeks prior to inclusion, and previously having failed or been intolerant to treatment with mesalazine ≥2.4 g/day for ≥4 weeks, GCS with at least 0.75 mg/kg as a starting dose, azathioprine or mercaptopurine for ≥3 months, and/or one adequate treatment course of a TNF-α inhibitor. Patients may have tried treatment with cyclosporine or tacrolimus before the trial. Four patients in the placebo group [9.3%] and 5 patients in the cobitolimod group [6.2%] had used cyclosporine prior to the study start, but not in the study.
During the trial, patients could be taking sulfasalazine, aminosalicylates, or thiopurines, and should be on oral GCS at stable doses. Concurrent therapies with cyclosporine, tacrolimus or TNF-α inhibitors during the trial or in the 4 weeks before enrolment, or antibiotics or non-steroidal anti-inflammatory drugs [NSAIDs] in the 2 weeks before enrolment were not permitted.
Eligible patients were randomized in a 2:1 ratio to receive administration of cobitolimod via endoscopy [30 mg] at Week 0 and 4, or matching placebo diluted in 50 mL of sterile water after adequate bowel cleaning for stool content. The application was done proximally to the site of mucosal inflammation, or in the transverse section of the colon in the event of extensive colitis, using a spray catheter during endoscopy. Patients were asked to remain recumbent for 2 h after administration. Patients were followed up with visits after 1, 4, 8, 12, 22, and 52 weeks. At Weeks 0, 4, and 12, patients underwent endoscopic evaluation and biopsies were taken from the most inflamed mucosal area. ICON [Texas, USA] produced the randomization code by a computer-generated procedure, which used the method of randomly permuted blocks. Oral GCS treatment was mandatory at a stable daily dose of >10 mg initiated at least 2 weeks prior to inclusion. Steroid tapering was done to a standard tapering schedule according to European Crohn's and Colitis Organisation [ECCO] guidelines when the patient had reached clinical remission, the earliest at Week 12.
The primary endpoint was induction of clinical remission at Week 12, defined as a CAI score of ≤4. […] Secondary endpoints included mucosal healing [endoscopic Mayo sub-score ≤1, endoscopies not centrally read]; clinical remission at Weeks 1, 4, 8, 22 and 52; clinical remission and mucosal healing; symptomatic remission [defined as absence of blood in stool and weekly stool frequency of <35]; histological Geboes score at Week 4 and 12 as assessed by a single trial histopathologist; time to colectomy; and quality of life based on the inflammatory bowel disease questionnaire [IBDQ] and the 36-item short-form survey [SF36] score. Post hoc, the combined score for subjects who achieved both symptomatic remission and mucosal healing was defined.

[4] = second multi-dose regime, until March 2011

5′-G*G*A*ACAGTTCGTCCAT*G*G*C-3′ (SEQ ID NO:1) (DNA dG*dG*dA*dAdCdAdGdTdTdCdGdTdCdCdAdT*dG*dG*dC) [cobitolimod]
time patient kept in remission by repeat dosing ([1]; first multi-dose regime (May, June and July)): 3 months
time complete clinical remission was further maintained ([1]; first multi-dose regime, after week 4, with last dose and steroid tapering): two
drop in the CAI score ([1]; one week after first 30 mg dose, add-on to current therapies): 4 points
time to clinical remission ([1]; second multi-dose regime started 25 Aug. 2010): ≤ 4 weeks
time complete clinical remission was maintained [1, 4]: 5 months
time patient kept in remission by repeat dosing [1, 4]: over five
remission status ([1]; week 4 of first multi-dose regime, with continued steroid tapering): complete remission
remission status ([1]; week 8 of second multi-dose regime): complete clinical remission
colon-shortening effects of DSS (colon length) ([2]; 125 μg intrarectally): significantly reduced
colonic weight/length ratio ([2]; 125 μg intrarectally): decreased
colon-shortening effects of DSS (colon length) ([2]; 500 μg intrarectally): reduced
colonic weight/length ratio ([2]; 500 μg intrarectally): decreased
delta between active drug and placebo, symptomatic remission ([3]; week 4): 18.1%
percentage of patients in symptomatic remission ([3]; week 4, 30 mg at week 0, topically during endoscopy): 32.1%
delta between active drug and placebo, symptomatic remission ([3]; week 8): 16.8%
percentage of patients in symptomatic remission ([3]; week 8, 30 mg at weeks 0 and 4): 28.4%
decrease in percentage of patients in remission ([3]; week 8 as compared to week 4): 3.7%
delta between active drug and placebo, symptomatic remission ([3]; week 12): 11.8%
percentage of patients in symptomatic remission ([3]; week 12, 30 mg at weeks 0 and 4, no dose at week 8): 23.5%
decrease in percentage of patients in remission ([3]; week 12 as compared to week 8): 4.9%

Infliximab: TNF-α inhibitor approved for the treatment of moderate to severe ulcerative colitis [reference compound]
CAI score after treatment ([1]; high dose of steroid in combination with Infliximab, reduced from 14, March 2010): 9
adverse event after treatment ([1]; one dose at the end of January, event in February 2010): severe salmonellosis with septicemia
